From patent US20210221862A1, “APPLICATION OF PEDF-DERIVED SHORT PEPTIDES IN THE TREATMENT OF OSTEOARTHRITIS” (BRIM Biotechnology, Inc., priority 2018, published 2021)

Tests used:
[1] = system: rat model of MIA-induced OA; assay: MIA-induced hind paw weight-bearing shift (incapacitance tester), rat OA model; assay type: in vivo; conditions: for MIA-induced weight shift (hind paw weight-bearing): vehicle/HA 75.9±4.7%
Experimental: (§1) Adult 10-wk-old male Sprague-Dawley rats (initial body wt=312±11 g) were anesthetized by an intraperitoneal injection of Xylazine (10 mg/kg). After that, their right knees were each treated with a single intraarticular injection of 1 mg of MIA in 25 μl of sterile saline. The solution was injected through the patellar ligament using a 27 G needle with the leg flexed at a 90° angle at the knee. Seven days after MIA injection, the […] were randomly assigned to different experimental groups (n 3, each group). For treatments of the rat model of MIA-induced OA, PDSP peptide was dissolved in 25 μl of 1% HA, and the peptide solvent DMSO was used as a vehicle/HA control.
Changes in hind paw weight distributions between the right (osteoarthritic) and left (contralateral control) limbs were used as an index of joint discomfort in the osteoarthritic knee. An incapacitance tester was employed for determination of hind paw weight distributions, as previously described (Bove et al., Weight bearing as a measure of disease progression and efficacy of anti-inflammatory compounds in a model of monosodium iodoacetate-induced osteoarthritis. Osteoarth Cart., 2003; 11:821-830). Rats were placed in an angled plexiglass chamber positioned so that each hind paw rested on a separate force plate. The force exerted by each hind limb (measured in grams) is averaged over a 5-s period. Each data point is the mean of three, 5-s readings. The change in hind paw weight distribution was calculated by determining the difference in the amounts of weights (g) exerted on the tester between the left and right limbs. Results are presented as either the difference in weight bearing between the left (contralateral control) limb and right (osteoarthritic) limbs or as the percent difference between the baseline reading and the post-treatment reading, as calculated using the following equation:
(1−(mean Δweight of treated group/mean Δ weight of vehicle group))×(100)
To investigate whether PDSP (PEDF short peptide) has antinociceptive effects to ameliorate the joint discomfort, 10-wk-old male Sprague-Dawley rats (n=15) were subjected to intraarticular injection of 1 mg of MIA (dissolved in 25 μl of sterile saline) into right joint to induce a maximum degree of weight shift (from right to left leg) and then used to investigate the pharmacologic response of the 29-mer PDSP (SEQ ID NO:1). […]
In the animal study, the 29-mer PDSP variants were formulated into 1% HA to final a concentration of 0.2 mM and then applied by way of a single intraarticular injection each on day 1 and day 8 post-MIA injection. After 29-mer variant treatments for 14 days, the antinociceptive effects of the 29-mer variants (n=3 per group) on MIA-induced hind paw weight-bearing shifts were evaluated with an incapacitance tester.

[2] = system: rat MSCs; assay: Chondrogenic differentiation of MSCs, GAG by Alcian blue staining; assay type: cell-based; conditions: 10 μM peptide in medium with dexamethasone and TGF-β3, 21 days; DMSO control 0.15±0.024
Experimental: Adult 8-wk-old male Sprague-Dawley rats were anesthetized with an intraperitoneal injection of Xylazine (10 mg/kg). After that, their femurs were aseptically harvested, washed in a mixture of PBS and antibiotics for 5 minutes, and then they were dissected off of all soft tissue, transected at their epiphysis, and their marrow cavity rinsed repeatedly with a mixture of heparin (AGGLUTEX INJ 5000 U/ML 5 ML; working conc. 100 U/ml) and DMEM. The harvested cells were collected, dispersed by pipetting, and centrifuged at 1000×g for 5 minutes at RT. Cell pellets were resuspended with DMEM, and then the cell suspension was transferred to a 15-ml centrifuge tube containing 5 ml of Percoll (1.073 g/ml). […]
For Alcian blue staining, cultures were rinsed twice with PBS, fixed in 4% (w/v) paraformaldehyde for 15 min, and then incubated in 1% (w/v) Alcian blue 8-GX (Sigma) in 0.1 N HCl (pH 1.0) overnight as previously described (Ji Y. H. et al., Quantitative proteomics analysis of chondrogenic differentiation of C3H10T1/2 mesenchymal stem cells by iTRAQ labeling coupled with on-line two-dimensional LC/MS/MS, Mol. Cell. Proteom., 2010, 9(3): 550-564.). For semi-quantitative analysis, Alcian blue-stained cultures were extracted with 6 M guanidine HCl for 2 h at room temperature. The absorption of the extracted dye was measured at 650 nm in a microplate reader (Bio-Rad). […]

[3] = system: chondrogenic cells in damaged articular cartilage; assay: In vivo DNA synthesis: BrdU / Sox9 staining of damaged articular cartilage, MIA-induced OA; parameters: species or system rat
Experimental: as §1
For detection of cell proliferation, BrdU was reconstituted in DMSO as stock (80 mM). […] DNA synthesis was assessed by BrdU labeling, as detected with anti-BrdU antibodies.
To detect DNA synthesis in vivo, paraffin-embedded joint specimens were deparaffinized in xylene and rehydrated in a graded series of ethanol and then exposed to 1 N HCl at RT for 1 h for subsequent immunohistochemistry. […] Images were captured using a Zeiss epifluorescence microscope with a CCD camera and measured from 20 randomly-selected areas in each sample, and blind quantification was performed in triplicate by manually counting within each section. […]

[4] = system: MIA-damaged articular cartilage; assay: Histological examination (H&E) of MIA-damaged articular cartilage; assay type: in vivo, rat; conditions: 29-mer/HA from day 8 post-MIA for 2 weeks
Experimental: as §1
The knee joints were dissected, and the surrounding soft tissue was removed. Specimens were fixed in a 4% paraformaldehyde (PFA) solution and then were decalcified with Shandon TBD-2 decalcifier (Thermo Scientific, Logan, Utah). The joints were then sectioned mid-sagittally and embedded in paraffin blocks. Sections (5 μm in thickness) were longitudinally cut and stained with hematoxylin and eosin (H&E) or used for immunohistochemical examination. 20 sections per knee were carefully prepared so as to include the most severely degenerated area.
It has been established that rat knee joints injected with MIA can result in extensive chondrocyte degeneration/necrosis at day 7 post-MIA treatment in a rapid and reproducible manner. […]

With “SLGAEQRTESIIHRALYYDLISSPDIHGT (in 1% hyaluronic acid; listed as Homo sapiens) [29-mer, PEDF-derived short peptide, human PEDF residues 93-121]” the “MIA-induced weight shift (hind paw weight-bearing)” value (“MIA-induced weight shift” for short) ([1]; group II: 0.2 mM 29-mer in 1% HA, intraarticular on day 1, 4, 8, 12 (twice per week), 14 days) was 63.3±12.5%, the “MIA-induced weight shift” value ([1]; group III: 29-mer alone (bolus, without HA), intraarticular day 1, 4, 8, 12) was 77.2±1.2% and the “MIA-induced weight shift” value ([1]; group IV: 29-mer/HA, intraarticular once on day 1 and day 8 (once per week), 14 days) was 58.1±4.6%. For the same sequence, the “MIA-induced hind paw weight-bearing shift” value ([1]; variant study (FIG. 4): 0.2 mM peptide in 1% HA, intraarticular day 1 and day 8, after 14 days, vehicle/HA 47.1±3.7%) was 22.0±0.66%, the “Alcian blue-positive material (GAG) at OD 650 nm” value [2] was 0.34±0.013 and the “Sox9 immunostaining of BrdU-positive cells” value ([3]; 0.2 mM 29-mer/HA, dual immunostaining, FIG. 5A) was “BrdU-positive cells were also Sox9 positive”. For the same sequence, the “BrdU-positive cells per field of cartilage region” value ([3]; 0.2 mM peptide in 1% HA, 14 days treatment, vehicle/HA 7±3) was 346±57, the “Chondrocytes in cartilage, H&E histology” value ([4]; vehicle/HA: chondrocytes lost from superficial zone) was “large numbers of newly generated chondrocytes throughout the cartilage” and the “Cartilage integrity, H&E histology” value ([4]; vehicle/HA: loss of cartilage integrity) was “good surface continuity”.
